Measured values taken from ChEMBL document CHEMBL5523725, “Fragment-Based Anti-inflammatory Agent Design and Target Identification: Discovery of AF-45 as an IRAK4 Inhibitor to Treat Ulcerative Colitis and Acute Lung Injury” (J Med Chem, 2024).
Calls of active or inactive are those of the source. The rule behind the calls is not given here.

Assays:
RAW264.7 = test: Antiinflammatory activity in LPS-induced mouse RAW264.7 cells assessed as inhibition of IL-6 release at 10 uM pretreated for 30 mins followed by LPS stimulation and measured after 24 hrs by ELISA relative to control; format: functional; conditions: time 24.5 hrs
[1] = Cytotoxicity against mouse RAW264.7 cells assessed as cell viability by MTT assay; format: toxicity, cell-based; set-up: concentration or dose not given beside the values; conditions: read-out: Activity
Mus musculus [2] = test: Antiinflammatory activity in LPS induced C57BL/6 mouse model of acute lung injury assessed as reduction in spleen over activation at 20 mg/kg, ip preadministered for 30 mins followed by LPS administration and measured after 6 hrs by H and E staining based analysis; format: functional, organism-based; conditions: time 6.5 hrs
Mus musculus [3] = test: Antiinflammatory activity in LPS induced C57BL/6 mouse model of acute lung injury assessed as inhibition of IL-6 release in BALF at 20 mg/kg, ip preadministered for 30 mins followed by LPS administration and measured after 6 hrs by ELISA; format: functional, organism-based; conditions: time 6.5 hrs
Mus musculus [4] = test: Antiinflammatory activity in LPS induced C57BL/6 mouse model of acute lung injury assessed as reduction in macrophage infiltration in lung at 20 mg/kg, ip preadministered for 30 mins followed by LPS administration and measured after 6 hrs by F4/80 labeling based immunohistochemical analysis; format: functional, organism-based; conditions: time 6.5 hrs
Mus musculus [5] = test: Antiinflammatory activity in LPS induced C57BL/6 mouse model of acute lung injury assessed as inhibition of TNFalpha release in BALF at 20 mg/kg, ip preadministered for 30 mins followed by LPS administration and measured after 6 hrs by ELISA; format: functional, organism-based; conditions: time 6.5 hrs
Mus musculus [6] = test: Antiinflammatory activity in LPS induced C57BL/6 mouse model of acute lung injury assessed as reduction in over activation of spleen at 20 mg/kg, ip preadministered for 30 mins followed by LPS administration and measured after 6 hrs by F4/80 labeling based immunohistochemical analysis; format: functional, organism-based; conditions: time 6.5 hrs
Mus musculus [7] = test: Antiinflammatory activity in LPS induced C57BL/6 mouse model of acute lung injury assessed as reduction in number of macrophages in spleen at 20 mg/kg, ip preadministered for 30 mins followed by LPS administration and measured after 6 hrs by F4/80 labeling based immunohistochemical analysis; format: functional, organism-based; conditions: time 6.5 hrs
Mus musculus [8] = test: Antiinflammatory activity in LPS induced C57BL/6 mouse model of acute lung injury assessed as reduction in white pulp fusion at 20 mg/kg, ip preadministered for 30 mins followed by LPS administration and measured after 6 hrs by H and E staining based analysis; format: functional, organism-based; conditions: time 6.5 hrs
Mus musculus [9] = test: Antiinflammatory activity in LPS induced C57BL/6 mouse model of acute lung injury assessed as inhibition of IL-6 release in serum at 20 mg/kg, ip preadministered for 30 mins followed by LPS administration and measured after 6 hrs by ELISA; format: functional, organism-based; conditions: time 6.5 hrs
Mus musculus [10] = test: Antiinflammatory activity in LPS induced C57BL/6 mouse model of acute lung injury assessed as inhibition of TNFalpha release in serum at 20 mg/kg, ip preadministered for 30 mins followed by LPS administration and measured after 6 hrs by ELISA; format: functional, organism-based; conditions: time 6.5 hrs
Mus musculus [11] = test: Antiinflammatory activity in male C57BL/6 mouse model of DSS-induced ulcerative colitis assessed as reduction in spleen to body weight ratio at 100 mg/kg, po administered for 11 days with subsequent administration of DSS for 8 days; format: functional, organism-based; conditions: time 11.0 day
Mus musculus [12] = test: Antiinflammatory activity in male C57BL/6 mouse model of DSS-induced ulcerative colitis assessed as reduction in colonic structure destruction at 100 mg/kg, po administered for 11 days with subsequent administration of DSS for 8 days by H and E staining based analysis; format: functional, organism-based; conditions: time 11.0 day
Mus musculus [13] = test: Antiinflammatory activity in male C57BL/6 mouse model of DSS-induced ulcerative colitis assessed as preservation of goblet cells at 100 mg/kg, po administered for 11 days with subsequent administration of DSS for 8 days by H and E staining based analysis; format: functional, organism-based; conditions: time 11.0 day
Mus musculus [14] = test: Antiinflammatory activity in male C57BL/6 mouse model of DSS-induced ulcerative colitis assessed as restoration of protein status at 100 mg/kg, po administered for 11 days with subsequent administration of DSS for 8 days by H and E staining based analysis; format: functional, organism-based; conditions: time 11.0 day
Mus musculus [15] = test: Antiinflammatory activity in male C57BL/6 mouse model of DSS-induced ulcerative colitis assessed as reduction in macrophage infiltration in spleen at 100 mg/kg, po administered for 11 days with subsequent administration of DSS for 8 days by F4/80 labeling based immunohistochemistry analysis; format: functional, organism-based; conditions: time 11.0 day
Mus musculus [16] = test: Antiinflammatory activity in male C57BL/6 mouse model of DSS-induced ulcerative colitis assessed as reduction in macrophage infiltration in colon at 100 mg/kg, po administered for 11 days with subsequent administration of DSS for 8 days by F4/80 labeling based immunohistochemistry analysis; format: functional, organism-based; conditions: time 11.0 day
Mus musculus [17] = test: Anti-colitis activity in male C57BL/6 mouse model of DSS-induced ulcerative colitis assessed as colon length at 100 mg/kg, po administered for 11 days with subsequent administration of DSS for 8 days (reference value: 5.2 cm); format: functional; conditions: time 11 day
[18] = target: T1, Lymphocyte antigen 96 (Mus musculus) (UniProt Q9JHF9); test: Thermal stabilization of MD2 in mouse RAW264.7 cells assessed as reduction in decomposition at 10 uM at 45 to 51 degreeC measured after 4 hrs by CETSA; format: cell-based
T1 sequence (whole entry): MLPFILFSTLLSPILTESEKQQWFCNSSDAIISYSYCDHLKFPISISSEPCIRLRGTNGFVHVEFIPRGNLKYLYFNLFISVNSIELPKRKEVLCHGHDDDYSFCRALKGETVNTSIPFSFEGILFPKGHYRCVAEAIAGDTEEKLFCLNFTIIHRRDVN

| SMILES | inhibition at 10 µM (RAW264.7) [%] | viability [1] [%] | other results |
| --- | --- | --- | --- |
| COc1cc2ncnc(N[C@H]3CC[C@@H](NCCCN(C)C)CC3)c2cc1OC | 11.1 | 96.5 | – |
| Cn1c(CNC(=O)O[C@H]2C[C@@H](N)C2)nc2ccccc21 | 44.7 | 97.1 | – |
| C[C@@H]1C[C@H]2[C@@H]3CCC4=CC(=O)C=C[C@]4(C)[C@@]3(F)[C@@H](O)C[C@]2(C)[C@@]1(O)C(=O)CO | – | – | Activity (Mus musculus [2]): Active; Activity (Mus musculus [3]): Active; Activity (Mus musculus [4]): Active; Activity (Mus musculus [5]): Active; Activity (Mus musculus [6]): inactive; Activity (Mus musculus [7]): inactive; Activity (Mus musculus [8]): Active; Activity (Mus musculus [9]): Active; Activity (Mus musculus [10]): Active |
| COc1cc2ncnc(Oc3cccc(NC(=O)N[C@H]4CC[C@@H](NC(=O)c5ccc(F)cc5Cl)CC4)c3)c2cc1OC | 9.4 | 130 | – |
| COc1cc2ncnc(Oc3cccc(NC(=O)N[C@H]4CC[C@@H](NS(=O)(=O)c5ccccc5)CC4)c3)c2cc1OC | 16 | 112 | – |
| Nc1ccc(O)c(C(=O)O)c1 [MESALAMINE] | – | – | Activity (Mus musculus [11]): Active; Activity (Mus musculus [12]): Active; Activity (Mus musculus [13]): Active; Activity (Mus musculus [14]): Active; Activity (Mus musculus [15]): Active; Activity (Mus musculus [16]): Active; Activity (Mus musculus [17]): 6 cm |
| COc1cc2ncnc(Oc3cccc(NC(=O)N[C@H]4CC[C@@H](NC(=O)c5ccccn5)CC4)c3)c2cc1OC | 45.4 | 116 | – |
| COc1cc2ncnc(N[C@H]3CC[C@@H](NS(=O)(=O)c4ccc(C)cc4)CC3)c2cc1OC | 45.4 | 104 | – |
| COc1cc2ncnc(Oc3cccc(NC(=O)N[C@H]4CC[C@@H](NC(=O)OC(C)(C)C)CC4)c3)c2cc1OC | 2.1 | 92.1 | – |
| CCN1CCN(CCOc2ncnc3cc(OC)c(OC)cc23)CC1 | 40 | 90.1 | – |
| COc1cc2ncnc(O[C@H]3CC[C@@H](N)CC3)c2cc1OC | 75.8 | 88.9 | – |
| COc1cc2ncnc(N[C@H]3CC[C@@H](NC(=O)c4ccc(F)cc4)CC3)c2cc1OC | 39.9 | 102 | – |
| COc1cc2nc(Cl)nc(O[C@H]3CC[C@@H](N)CC3)c2cc1OC | 34.3 | 105 | – |
| COc1cc2ncnc(Oc3cccc(NC(=O)N[C@H]4CC[C@@H](NC(=O)CCC5CCCC5)CC4)c3)c2cc1OC | 52.9 | 117 | – |
| COc1cc2ncnc(N[C@H]3CC[C@@H](NCCO)CC3)c2cc1OC | 10.6 | 99.7 | – |
| COc1cc2ncnc(Oc3cccc(NC(=O)O[C@H]4C[C@@H](N)C4)c3)c2cc1OC | 46.9 | 106 | – |
| COc1cc2ncnc(NCCc3cccs3)c2cc1OC | 16.1 | 88.1 | – |
| COc1ccc(C(=O)/C=C/c2cccc(OC)c2OC)cc1 | – | – | Activity [18]: Active |

| SMILES | inhibition at 10 µM (RAW264.7) [%] | viability [1] [%] | other results |
| --- | --- | --- | --- |
| N[C@H]1C[C@@H](OC(=O)c2nn(-c3ccccc3)ccc2=O)C1 | 33.2 | 89 | – |
| COc1cc2ncnc(Oc3cccc(NC(=O)N[C@H]4CC[C@@H](NC(=O)c5ccc(F)cc5)CC4)c3)c2cc1OC | 52.2 | 123 | – |
| COc1cc2c(N[C@H]3CC[C@@H](N)CC3)ncnc2cc1OCc1ccccc1 | 88.6 | 86.7 | – |
| COc1cc2ncnc(N[C@H]3CC[C@@H](N)CC3)c2cc1OC | 83.7 | 91.1 | – |
| CN[C@H]1CC[C@@H](Nc2ncnc3cc(OC)c(OC)cc23)CC1 | – | 98.2 | inhibition (RAW264.7): inactive |
| COc1cc2ncnc(Oc3cccc(NC(=O)O[C@H]4CC[C@@H](N)CC4)c3)c2cc1OC | 73.4 | 96.5 | – |
| COc1cc2ncnc(O[C@H]3CC[C@H](N)CC3)c2cc1OC | 57.4 | 93.7 | – |
| COc1cc2ncnc(N[C@H]3CC[C@@H](NC(=O)c4ccc(C)cc4)CC3)c2cc1OC | 42.3 | 97.8 | – |
| COc1cc2ncnc(Oc3cccc(NC(=O)N[C@H]4CC[C@@H](NC(=O)c5ccc(C)cc5)CC4)c3)c2cc1OC | 72.7 | 124 | – |
| N[C@H]1CC[C@@H](OC(=O)c2nn(-c3ccccc3)ccc2=O)CC1 | – | 107 | inhibition (RAW264.7): inactive |
| Cn1c(CNC(=O)O[C@H]2CC[C@@H](N)CC2)nc2ccccc21 | 52.8 | 90.1 | – |
| N[C@H]1CC[C@@H](Oc2ncnc3ccccc23)CC1 | 76.8 | 103 | – |
| N[C@H]1CC[C@@H](Oc2ncnc3cc(Cl)ccc23)CC1 | 53.1 | 98.8 | – |
| COc1cc2ncnc(Oc3cccc(NC(=O)N[C@H]4CC[C@@H](NC(=O)c5cccc(F)c5)CC4)c3)c2cc1OC | 45.4 | 121 | – |
| COc1cc2ncnc(N[C@H]3CC[C@H](N)CC3)c2cc1OC | 64.6 | 108 | – |
| COCCOc1cc2ncnc(O[C@H]3CC[C@@H](N)CC3)c2cc1OCCOC | 52.7 | 98.6 | – |
| COc1cc2ncnc(Oc3cccc(NC(=O)N[C@H]4CC[C@@H](N)CC4)c3)c2cc1OC | 77.3 | 91.5 | – |
